The results in this text go back to patent US8445502B2, “Pharmaceutical formulations comprising salts of a protein kinase inhibitor and methods of using same” (Astex Pharmaceuticals, Inc., priority 2007, dated 2013).

The conditions of data set [1]: rat, in vivo, iv, 10 mg/kg. As for the experimental part: In the first IV administration study of MP470 free base, six groups of 6 rats were to be exposed to either vehicle alone or MP470 at 10, 20, 40, 80, or 160 mg/kg. Dosing was administered via a tail vein over approximately 30 minutes. Animals were observed immediately and 10 minutes and one hour after dosing, and daily thereafter for 4 additional days. […] Red urine and lethargy were present at 1 hour post dosing, but animals recovered and appeared normal thereafter. […] All other animals were euthanized and necropsied at day 4 appeared normal.

Data set [2] can be described thus: Single-dose pharmacokinetics in rat (Table 10). It counts as in vivo. The text has this: MP470 free base has a relative bioavailability of […] as compared to the HCl salt.
Data set [3] can be described thus: log P by shake-flask octanol/water partitioning. It is filed as physicochemical. Conditions: aqueous phase citrate buffer pH 2. As for the experimental part:
The log P value for MP470 was determined by the traditional shake-flask method with octanol/water partitioning. Citrate buffer at pH 2 was the aqueous phase. The concentration of the solute in the organic phase was analyzed by HPLC analysis of MP470 with respect to a calibration curve ranging from 0.2 to 200 μg/mL MP470. The majority of MP470 was found in the organic phase. The log P value of MP470 was determined to be 2.3.

Data set [4] is described as follows: Acute intravenous toxicity in rat, second study. It counts as in vivo. The note with it: single intravenous dose. As for the experimental part: In the second IV administration study of MP470 free base, six groups of 6 rats were to be exposed to either vehicle alone or MP470 at 0.625, 1.25, 2.5, 5, or 10 mg/kg. Dosing was administered via a tail vein over approximately 30 minutes. Animals in each group were given a single intravenous dose of the test substance. Animals in the lowest dose group were dosed first, followed by at least a 10 minute period to observe any effects. If no effects were observed or if effects were observed but deemed acceptable the dosing went to the next highest dose using the same progression criteria. Progression was stopped when unacceptable, adverse effects (e.g., severe convulsions or death) occurred or when the highest dose was successfully administered without adverse effects. A control group (formulation vehicle: TV-13) was included for relevant comparison. […] Dosing occurred on Day 0 and termination on Day 4. On Day 4, the animals were sacrificed and subjected to complete, documented, gross necropsy.
Mortality (50%) occurred in the high dose group (10 mg/kg). […] Under the conditions of this study, a maximum tolerated acute dose in the rat for MP470 was determined to be 5 mg/kg. However, a ‘no observable adverse effect level’ could not be determined due to adverse observations apparently associated with vehicle administration.

The test system of data set [5] is Rad51 in cancer cell lines. Put plainly: Rad51 Western blot after ionizing radiation. It is filed as cell-based. Conditions: cells pretreated with MP470. The text has this:
Similar to IR, the sensitivity of cancer cells to platinum-based drugs can be affected by the level of Rad51 protein.
(Immunoblotting shows a protein as a band on a membrane.)

The test system of data set [6] is γ-H2AX levels in OVCAR-3 (ovarian carcinoma) cells. Put plainly: DNA damage by γ-H2AX levels. Conditions: single agent 10 μM; control 0.5% DMSO medium. It counts as cell-based. As for the experimental part:
OVCAR-3 (ovarian carcinoma) cells were treated with MP470 (10 μM), MP470.HCl (10 μM), and/or topotecan (10 μM).

For data set [7], the system named is A549 lung cancer cells. It is filed as in vivo. Conditions: for tumor growth rate: qd×5×3 wk (vehicle 43). The method, then:
MP470 and MP470 HCl were tested against different tumor types in athymic nude mice as summarized below (Table 8). Various formulations and routes were evaluated. HT-29 colorectal cancer cells and SB-CL2 melanoma cells were implanted subcutaneously, while A549 lung cancer cells, MiaPaCa-2 pancreatic cancer cells, TT medullary thyroid cancer cells, and OVCAR-3 ovarian cancer cells were implanted […] in the hind flank of mice. All animals were allowed to develop medium-sized (80-125 mg) tumors, before initiation of dosing. Tumor volume and mouse bodyweight were followed over the course of the study.
A549 Lung Cancer Model—In 40 nude mice implanted intradermally with A549 lung cancer cells, animals were dosed with vehicle orally, MP470 in 100% corn oil orally, or 5-FU in sterile saline IP. […] […] While MP470 reduced tumor growth rates, treatment of these cells with 5-FU reduced the overall tumor growth rate per day further to 19.5 mm3/d on Day 26.
To determine whether MP470.HCl in combination with carboplatin increased the anti-tumor activity in xenograft tumors growing in vivo, the agents were administered alone and in combination and tumor growth was monitored. MP470.HCl (50 mg/kg) was combined with carboplatin (30 mg/kg) alone or carboplatin with taxol (20 mg/kg).

Data set [8] in a line: Solubility of MP470 and its salts (Table 2). It counts as physicochemical.
Data set [9] concerns Rad51 in A549 non-small cell lung cancer cells. Put plainly: Rad51 protein level by Western blot in cells. Conditions: MP470.HCl alone, 24 hrs. It is filed as cell-based. As for the experimental part:
Rad51 protein levels were also determined in A549 non-small cell lung cancer cells using combinations with DNA damaging agents. Cells were treated for 24 hrs with 6.1 μM (IC30 of carboplatin alone) carboplatin in combination with 0.71 μM or 3.82 μM MP470.HCl. Protein lysates were isolated from treated and non-treated cells, separated by SDS-PAGE, and transferred to nitrocellulose. […] The increase in Rad51 due to carboplatin treatment was reduced by 26% when treated in combination with 0.71 μM MP470.HCl and by 42% with 3.82 μM MP470.HCl

Where [10] appears, read: 50 mM PBS buffer, pH 7, aqueous buffer, 50 mM PBS buffer, pH 7, read-out: Solubility (50 mM PBS buffer, pH 7, Exp. 15).
Setting [11] is: water, read-out: Solubility in water.
Setting [12] is: Rat, 100 mg/kg PO, Dry Blend, hydrochloride, 100 mg/kg.

Where two headings read alike, the source gives them in different places.

In general, Cmax refers to the maximum level reached in the sampled fluid or tissue. For orientation: Tmax means the time from dosing to the highest level. What is called bioavailability is dose-corrected exposure relative to a reference, in per cent. Broadly, the logP is the decadic logarithm of the partition coefficient of the neutral form, usually between octanol and water. The low end stands for a more hydrophilic compound, the high end for a more lipophilic compound. The term Solubility denotes how much of the substance goes into solution per volume.

In the case of `S=C(NCc1ccc2c(c1)OCO2)N1CCN(c2ncnc3c2oc2ccccc23)CC1` [MP470, 4-[1]benzofuro[3,2-d]pyrimidin-4-yl-N-(1,3-benzodioxol-5-ylmethyl)piperazine-1-carbothioamide], in data set [1], the “mortality at the low dose” value is given as “the third rat died after dosing”. In [2] (Rat, 100 mg/kg PO, Dry Blend), the “Cmax” value was found to be 710 ng/mL. In data set [2] (Rat, 100 mg/kg PO, Dry Blend), the “Tmax” value is reported as 11.3 h. Besides, the “AUC0→last” value in data set [2] (Rat, 100 mg/kg PO, Dry Blend, 100 mg/kg) was determined as 7910 ng·h/mL; in [2] (Rat, 100 mg/kg PO, Dry Blend, listed as MP470 (free base), 100 mg/kg), 7900 ng·h/mL. Also, in data set [2] (in vivo, Rat, 100 mg/kg oral, dry powder blend, read-out: relative bioavailability as compared to the HCl salt), the bioavailability is 8%. Besides, the logP in [3] turned out to be 2.3. In addition, the “maximum tolerated acute dose” value in data set [4] was 5 mg/kg. The “Rad51 protein level after ionizing radiation” value in [5] is on record as “Rad51 remained near control levels even after exposure to IR”. Further, the “Increase in DNA damage (γ-H2AX) over control” value in data set [6] is listed as “did not cause DNA damage”. Besides, the “Outcome: tumor growth” value in data set [7] (A549 lung, MP470 PO 50, 100, 200 mg/kg, (qd × 5) × 2 w, corn oil) was “no apparent dose relationship”. Also, the tumor growth rate is 28.3 mm3/d in data set [7] (Day 26, 50 mg/kg oral in corn oil); 34.9 mm3/d in data set [7] (Day 26, 100 mg/kg oral in corn oil); 28.1 mm3/d in [7] (Day 26, 150 mg/kg oral in corn oil). Besides, the Solubility in [8] (setting [10]) came to 1.22 µg/mL; in [8] (setting [11]), 4.94 µg/mL.

In the case of `Cl.S=C(NCc1ccc2c(c1)OCO2)N1CCN(c2ncnc3c2oc2ccccc23)CC1` [MP470.HCl, 4-[1]benzofuro[3,2-d]pyrimidin-4-yl-N-(1,3-benzodioxol-5-ylmethyl)piperazine-1-carbothioamide hydrochloride], the “AUC0→last” value in data set [2] (Rat, 3 mg/kg IV bolus, TV-10) was determined as 18810 ng·h/mL; in data set [2] (Rat, 100 mg/kg PO, Corn oil) it was 73350 ng·h/mL; in data set [2] (setting [12]) it was 94310 ng·h/mL. Besides, the peak concentration (Cmax) in [2] (Rat, 3 mg/kg IV bolus, TV-10) is 8530 ng/mL; in [2] (Rat, 100 mg/kg PO, Corn oil) it was 5270 ng/mL; in [2] (Rat, 100 mg/kg PO, Dry Blend), 7190 ng/mL; in [2] (in vivo, po, Rat, 100 mg/kg orally, range over vehicles, read-out: Cmax) it was 4600 to 7200 ng/mL. For the same molecule, the “Tmax” value in [2] (Rat, 3 mg/kg IV bolus, TV-10) was 0.02 h; in data set [2] (Rat, 100 mg/kg PO, Corn oil) it was 4.0 h; in data set [2] (Rat, 100 mg/kg PO, Dry Blend), 9.5 h; in data set [2] (Rat, 100 mg/kg orally, range over vehicles) it was 4.0 to 9.5 h. Besides, the “AUC0→last (μg · h/mL)” value in data set [2] (setting [12]) is “about 94 μg · h/mL”. Also, the “t½β” value in data set [2] (rat, in vivo, iv, 3 mg/kg) worked out at 0.36 h. Besides, the Rad51 expression result in [9] is “did not alter the expression of Rad51”. The “Increase in DNA damage (γ-H2AX) over control” value in data set [6] was “did not cause DNA damage”. Also, in data set [7] (A459 lung cancer, MP470.HCl PO 50 mg/kg, qd × 21, corn oil, hydrochloride, 50 mg/kg), the “Outcome: tumor growth” value was “Dose dependency”. For the same molecule, the Solubility in data set [8] (setting [10]) was 3.28 µg/mL; in [8] (setting [11]), 31.1 µg/mL.
